Active and inactive are the calls of the source. The rule behind the calls is not given here.

30 compounds from ChEMBL document CHEMBL3407341, “Synthesis and biological evaluation of 2-aryliminopyrrolidines as selective ligands for I1 imidazoline receptors: discovery of new sympatho-inhibitory hypotensive agents with potential beneficial effects in metabolic syndrome” (J Med Chem, 2015) can be followed below.

For assay [1], the system named is Rattus norvegicus. In words: Reduction in mean arterial blood pressure in normotensive anaesthetized Wistar rat at 0.3 mg/kg administered intracisternally. In kind it is functional.
The test system of assay [2] is Rattus norvegicus. In words: Reduction in heart rate in normotensive anaesthetized Wistar rat at 0.3 mg/kg administered intracisternally. In kind it is functional.
For assay [3], the system named is Rattus norvegicus. In words: Reduction in mean arterial blood pressure in normotensive anaesthetized Wistar rat at 10 mg/kg, iv. Set-up: scale not given: the % may be the effect or the level left.
Assay [4] concerns Rattus norvegicus. In words: Reduction in heart rate in normotensive anaesthetized Wistar rat at 10 mg/kg, iv. Set-up: scale not given: the % may be the effect or the level left.
The target of another assay is Nischarin (Rattus norvegicus, UniProt Q4G017). The assay is described as follows: Displacement of [125I] PIC from I1 imidazoline receptor in rat PC12 cells after 45 mins by gamma counting. It counts as cell-based, PC-12.
The target of assay [5] is T1, Adrenergic receptor alpha-2 (Homo sapiens, UniProt P08913+P18825+P18089).
T1 sequence (P08913 whole entry): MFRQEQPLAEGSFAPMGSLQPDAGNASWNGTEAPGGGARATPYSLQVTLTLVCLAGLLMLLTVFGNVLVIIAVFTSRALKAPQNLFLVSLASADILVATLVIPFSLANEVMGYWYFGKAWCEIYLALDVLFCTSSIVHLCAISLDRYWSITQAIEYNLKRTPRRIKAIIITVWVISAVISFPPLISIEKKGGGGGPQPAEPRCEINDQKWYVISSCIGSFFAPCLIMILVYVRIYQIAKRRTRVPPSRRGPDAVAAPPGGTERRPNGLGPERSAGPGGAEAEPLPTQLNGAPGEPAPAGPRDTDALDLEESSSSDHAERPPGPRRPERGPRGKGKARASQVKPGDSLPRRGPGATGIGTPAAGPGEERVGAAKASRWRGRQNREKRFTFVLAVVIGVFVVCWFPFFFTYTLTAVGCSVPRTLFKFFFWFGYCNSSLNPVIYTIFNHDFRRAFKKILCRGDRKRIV
T1 sequence (P18825 whole entry): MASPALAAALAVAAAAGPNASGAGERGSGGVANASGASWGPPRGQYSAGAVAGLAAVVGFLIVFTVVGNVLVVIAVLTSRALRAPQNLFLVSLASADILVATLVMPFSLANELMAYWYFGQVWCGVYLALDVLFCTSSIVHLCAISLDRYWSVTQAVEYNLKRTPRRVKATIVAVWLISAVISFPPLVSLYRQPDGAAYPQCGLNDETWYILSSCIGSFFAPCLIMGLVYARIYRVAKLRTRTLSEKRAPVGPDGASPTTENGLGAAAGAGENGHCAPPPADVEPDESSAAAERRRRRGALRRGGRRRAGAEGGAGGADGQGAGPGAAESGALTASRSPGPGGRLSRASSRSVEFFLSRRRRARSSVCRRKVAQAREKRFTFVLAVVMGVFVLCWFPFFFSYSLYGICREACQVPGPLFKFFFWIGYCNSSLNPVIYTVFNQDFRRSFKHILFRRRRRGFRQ
T1 sequence (P18089 whole entry): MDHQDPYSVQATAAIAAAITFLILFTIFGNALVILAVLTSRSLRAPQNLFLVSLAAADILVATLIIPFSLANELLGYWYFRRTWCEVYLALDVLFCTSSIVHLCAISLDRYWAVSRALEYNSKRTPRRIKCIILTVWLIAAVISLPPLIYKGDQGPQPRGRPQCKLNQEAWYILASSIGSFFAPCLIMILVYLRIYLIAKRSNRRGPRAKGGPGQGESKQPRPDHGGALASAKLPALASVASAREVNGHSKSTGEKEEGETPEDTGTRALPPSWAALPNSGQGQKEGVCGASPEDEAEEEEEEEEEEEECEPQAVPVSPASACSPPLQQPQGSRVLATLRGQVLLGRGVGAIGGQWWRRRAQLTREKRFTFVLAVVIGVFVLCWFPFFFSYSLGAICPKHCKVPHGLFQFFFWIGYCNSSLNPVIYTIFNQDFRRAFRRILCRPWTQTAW
The assay is described as follows: Displacement of [3H]RX821002 from human alpha2 adrenoceptor expressed in CHO cell membranes after 60 mins. In kind it is cell-based.

Assay [6] deals with Rattus norvegicus. In words: Reduction in mean arterial blood pressure in normotensive anaesthetized Wistar rat at 3 mg/kg, iv. Set-up: scale not given: the % may be the effect or the level left.
In assay [7] the test system is Rattus norvegicus. In words: Reduction in heart rate in normotensive anaesthetized Wistar rat at 3 mg/kg, iv. Set-up: scale not given: the % may be the effect or the level left.
In a further assay the test system is CHO. The assay is described as follows: Selectivity ratio of Ki for I1 imidazoline receptor in rat PC12 cells to Ki for human alpha2 adrenoceptor expressed in CHO cell membranes. It counts as cell-based.
In assay [8] the test system is Rattus norvegicus. In words: Reduction in heart rate in normotensive anaesthetized Wistar rat at 10 mg/kg, iv. Set-up: scale not given: the % may be the effect or the level left. It counts as functional.

Sequence of Nischarin (Q4G017 whole entry): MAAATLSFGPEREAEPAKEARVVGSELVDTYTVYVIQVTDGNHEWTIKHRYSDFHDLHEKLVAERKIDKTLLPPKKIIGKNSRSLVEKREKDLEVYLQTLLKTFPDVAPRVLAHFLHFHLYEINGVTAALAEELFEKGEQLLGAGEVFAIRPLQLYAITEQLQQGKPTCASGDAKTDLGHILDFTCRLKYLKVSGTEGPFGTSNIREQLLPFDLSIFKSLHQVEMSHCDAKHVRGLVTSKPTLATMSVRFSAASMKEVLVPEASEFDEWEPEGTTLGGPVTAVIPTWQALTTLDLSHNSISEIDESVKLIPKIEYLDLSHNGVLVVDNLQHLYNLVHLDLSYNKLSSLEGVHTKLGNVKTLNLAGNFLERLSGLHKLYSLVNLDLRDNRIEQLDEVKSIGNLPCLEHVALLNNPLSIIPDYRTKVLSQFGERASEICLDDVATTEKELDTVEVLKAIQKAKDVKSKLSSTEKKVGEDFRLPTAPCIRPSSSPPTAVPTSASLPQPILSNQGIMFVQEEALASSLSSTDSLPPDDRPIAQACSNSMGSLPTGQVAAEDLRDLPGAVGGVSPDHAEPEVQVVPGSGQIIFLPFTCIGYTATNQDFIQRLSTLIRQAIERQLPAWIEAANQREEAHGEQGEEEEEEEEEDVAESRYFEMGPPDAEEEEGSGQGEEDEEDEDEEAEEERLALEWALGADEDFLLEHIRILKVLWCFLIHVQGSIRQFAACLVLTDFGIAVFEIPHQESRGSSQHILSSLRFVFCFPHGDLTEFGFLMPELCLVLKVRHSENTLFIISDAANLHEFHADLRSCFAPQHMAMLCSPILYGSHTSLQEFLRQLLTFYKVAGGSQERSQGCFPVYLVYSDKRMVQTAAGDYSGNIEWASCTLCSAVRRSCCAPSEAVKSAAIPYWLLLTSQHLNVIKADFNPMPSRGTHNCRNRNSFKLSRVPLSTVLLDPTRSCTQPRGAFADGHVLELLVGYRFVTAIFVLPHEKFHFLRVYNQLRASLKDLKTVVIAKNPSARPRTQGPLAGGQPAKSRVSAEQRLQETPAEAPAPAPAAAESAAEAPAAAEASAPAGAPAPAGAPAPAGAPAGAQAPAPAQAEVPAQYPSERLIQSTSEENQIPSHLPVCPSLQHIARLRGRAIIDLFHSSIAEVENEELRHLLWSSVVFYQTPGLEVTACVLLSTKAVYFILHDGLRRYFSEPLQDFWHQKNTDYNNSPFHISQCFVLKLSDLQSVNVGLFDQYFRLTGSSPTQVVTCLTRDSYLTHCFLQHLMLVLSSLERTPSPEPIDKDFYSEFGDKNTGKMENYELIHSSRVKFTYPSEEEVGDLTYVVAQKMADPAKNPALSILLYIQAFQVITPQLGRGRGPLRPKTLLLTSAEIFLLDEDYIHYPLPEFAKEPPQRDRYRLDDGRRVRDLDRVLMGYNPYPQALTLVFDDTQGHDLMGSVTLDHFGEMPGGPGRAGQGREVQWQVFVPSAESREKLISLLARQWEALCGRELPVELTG

For the compound `Cc1cccc(C)c1/N=C1/CCC(C)N1.Cl` (stereo not drawn), the result with Rattus norvegicus [1] and in the assay on Rattus norvegicus [2] was inactive. The Activity in the assay on Rattus norvegicus [3] came out at 5%; in the assay with Rattus norvegicus [4] it was 4%.

Turning to `CC1CC/C(=N/c2cccc3c2CCCC3)N1.Cl` (stereo not drawn), the Activity with Rattus norvegicus [1] was determined as 29%; in the assay with Rattus norvegicus [2], 10%; in the assay with Rattus norvegicus [3], 37%; with Rattus norvegicus [4], 26%. Besides, the figures for the Ki (on Nischarin (read-out: Ki); in [5]) were 73 nM and greater than 10000 nM, respectively.

`CC1CN/C(=N\c2ccc(Cl)c3c2CCC3)C1.Cl` (stereo not drawn): the Ki in assay [5] is greater than 10000 nM. In addition, the Activity with Rattus norvegicus [3] worked out at 10%; in the assay on Rattus norvegicus [4], 6%.

Consider `Cc1c(Cl)cccc1/N=C1\CC(C)CN1.Cl` (stereo not drawn), for which the Activity is on record as 30% in the assay with Rattus norvegicus [1], 30% in the assay with Rattus norvegicus [6], 18% in the assay on Rattus norvegicus [7] and 33% in the assay with Rattus norvegicus [2]. For the same compound, the Ki in assay [5] is reported as greater than 10000 nM.

Turning to `Cc1c(Cl)cccc1NC1=NCC(C)C1` (stereo not drawn), the Ki at Nischarin (read-out: Ki) was determined as 3.2 nM. Besides, the Ratio Ki in the assay with CHO is greater than 3000.

`NC1=NCC(COc2ccccc2Br)O1` (stereo not drawn): the Ki at Nischarin (read-out: Ki) was 6.4 nM; in assay [5], greater than 10000 nM.

Take `Cc1ccc(/N=C2/CC(C)CN2)c2c1CCC2.Cl` (stereo not drawn): the Activity is 32% with Rattus norvegicus [1], 15% with Rattus norvegicus [2], 26% in the assay on Rattus norvegicus [3] and 22% in the assay on Rattus norvegicus [4]. Further, in assay [5], the inhibitory constant (Ki) was greater than 10000 nM.

As for `Clc1cccc(Cl)c1N=C1NCCN1` [CLONIDINE], the Ki at Nischarin (read-out: Ki) worked out at 14.1 nM.

The compound `CC1CNC(Nc2c(Cl)cccc2Cl)=N1` (stereo not drawn) yielded a Ki in [5] greater than 1949 nM.

As to `CC1CC/C(=N/c2ccc3c(c2)CCC3)N1.Cl` (stereo not drawn), the result in the assay on Rattus norvegicus [1] and with Rattus norvegicus [2] was inactive. The Activity in the assay with Rattus norvegicus [3] is given as 8%; in the assay on Rattus norvegicus [4] it was 4%.

As for `Cc1cc(F)ccc1/N=C1\CCC(C)N1.Cl` (stereo not drawn), the result in the assay with Rattus norvegicus [1] and with Rattus norvegicus [2] was inactive. Also, the Activity is 6% in the assay on Rattus norvegicus [3] and 8% with Rattus norvegicus [4].

As to `Cc1cccc(/N=C2\CC(C)CN2)c1C.Cl` (stereo not drawn), the Activity was found to be 25% in the assay with Rattus norvegicus [1], 26% in the assay on Rattus norvegicus [6], 31% in the assay on Rattus norvegicus [2] and 20% in the assay on Rattus norvegicus [8]. In addition, the Ki at Nischarin (read-out: Ki) was 42 nM; in assay [5], 10000 nM.

Regarding `CC1CCC(Nc2ccc(Cl)c3c2CCC3)=N1` (stereo not drawn), the outcome with Rattus norvegicus [1] and with Rattus norvegicus [2] was inactive. Besides, on Nischarin (read-out: Ki), the Ki came out at 2.8 nM.

As for `CC1CC/C(=N/c2cc3c(cc2Cl)CCC3)N1.Cl` (stereo not drawn), the result with Rattus norvegicus [1] and in the assay with Rattus norvegicus [2] was inactive. The Activity in the assay with Rattus norvegicus [3] amounted to 9%; in the assay with Rattus norvegicus [4] it was 3%.

For the compound `Cc1ccc(F)c(/N=C2\CCC(C)N2)c1.Cl` (stereo not drawn), the result with Rattus norvegicus [1] and in the assay on Rattus norvegicus [2] was inactive. Besides, the figures for the Activity with Rattus norvegicus [3] and in the assay on Rattus norvegicus [4] were 9% and 6%, respectively.

For `CC1CN=C(Nc2ccc(Cl)c3c2CCC3)C1` (stereo not drawn), the outcome in the assay on Rattus norvegicus [1] and in the assay with Rattus norvegicus [2] was inactive. The Ki on Nischarin (read-out: Ki) was found to be 0.22 nM.

In turn, `CC1CC/C(=N/c2ccc(Cl)c3c2CCC3)N1.Cl` (stereo not drawn) came in with an inhibition constant Ki in assay [5] greater than 10000 nM. Further, the Activity is 6% in the assay with Rattus norvegicus [3] and 7% with Rattus norvegicus [4].

In the case of `CC1CC(NC(C2CC2)C2CC2)=NC1C` (stereo not drawn), the values for the Ki (at Nischarin; in [5]) were 537 nM and greater than 10000 nM, respectively.

On to `Cc1ccc(F)c(C2=NCCN2)c1`, for which the Ki at Nischarin (read-out: Ki) is 5.3 nM; in assay [5], greater than 10000 nM.

Take `CC1CN/C(=N\c2ccc3c(c2)CCC3)C1.Cl` (stereo not drawn): the result with Rattus norvegicus [1] and with Rattus norvegicus [2] was inactive. The Activity in the assay with Rattus norvegicus [3] is 8%; in the assay on Rattus norvegicus [4], 4%.

Regarding `COc1nc(C)nc(Cl)c1N=C1NCCN1` [MOXONIDINE], the Ki on Nischarin (read-out: Ki) came out at 77.8 nM.

Take `Cc1ccc(Cl)c(/N=C2\CCC(C)N2)c1.Cl` (stereo not drawn): the result with Rattus norvegicus [1] and in the assay on Rattus norvegicus [2] was inactive. In addition, the Activity in the assay with Rattus norvegicus [3] and with Rattus norvegicus [4] was 7% each time.

`CC1CCC(Nc2ccc(I)cc2Cl)=N1` (stereo not drawn): the values for the Ki (on Nischarin (read-out: Ki); in assay [5]) were 0.2 nM and greater than 2500 nM, respectively.

For `Cc1cccc(/N=C2\CCC(C)N2)c1C.Cl` (stereo not drawn), the Activity with Rattus norvegicus [1] was found to be 20%; in the assay on Rattus norvegicus [2], 25%; in the assay on Rattus norvegicus [3], 25%; in the assay with Rattus norvegicus [4], 18%. Also, the Ki was 70 nM on Nischarin (read-out: Ki) and greater than 10000 nM in [5].

As for `CC1CC/C(=N\c2cc(N=[N+]=[N-])c(I)cc2Cl)N1` (stereo not drawn), the Ki on Nischarin (read-out: Ki) is 6.03 nM; in [5], greater than 2240 nM.

Take `CC1CN/C(=N\c2cccc3c2CCC3)C1.Cl` (stereo not drawn): the Activity in the assay with Rattus norvegicus [1] is on record as 30%; in the assay with Rattus norvegicus [6], 35%; in the assay with Rattus norvegicus [2] it was 30%; in the assay on Rattus norvegicus [8], 22%. Also, the Ki was 19 nM on Nischarin (read-out: Ki) and greater than 10000 nM in [5].

Consider `CC1CN/C(=N\c2cccc3c2CCCC3)C1.Cl` (stereo not drawn), for which the outcome with Rattus norvegicus [1] and with Rattus norvegicus [2] was inactive. The Activity in the assay with Rattus norvegicus [3] is recorded as 5%; in the assay with Rattus norvegicus [4], 3%.

Take `Cc1c(Cl)cccc1/N=C1\CCC(C)N1.Cl` (stereo not drawn): the Activity in the assay with Rattus norvegicus [1] turned out to be 25%; in the assay on Rattus norvegicus [2], 30%; in the assay on Rattus norvegicus [3] it was 28%; in the assay on Rattus norvegicus [4], 20%. The inhibition constant (Ki) was 27 nM on Nischarin (read-out: Ki) and greater than 10000 nM in assay [5].

For `CC1CC/C(=N/c2cccc3c2CCC3)N1.Cl` (stereo not drawn), the Activity with Rattus norvegicus [1] stood at 32%; in the assay with Rattus norvegicus [2], 29%; in the assay on Rattus norvegicus [3], 37%; in the assay with Rattus norvegicus [4], 20%. Besides, the Ki at Nischarin (read-out: Ki) was 19 nM; in assay [5] it was greater than 10000 nM.

Take `C1COC(NC(C2CC2)C2CC2)=N1` [RILMENIDINE]: the Ki amounted to 83.1 nM at Nischarin (read-out: Ki) and 180 nM in assay [5]. In addition, the Ratio Ki in the assay on CHO was 2.1.
